# Measured values reported in PMC7068811 (Frontiers in Immunology, 2020).
# Where no end group is shown, it is not given here.
# Legend:
# mouse PD1 = molecular target: T1, mouse PD1 (Mus musculus, UniProt Q02242); assay: Biacore surface plasmon resonance, binding to mouse PD1; settings: for relative affinity for mouse PD1: compared to WQ20 and HD20 (Table 2); for KA: 25°C, HEPES pH 7.4
# T1 sequence (Q02242 25-288): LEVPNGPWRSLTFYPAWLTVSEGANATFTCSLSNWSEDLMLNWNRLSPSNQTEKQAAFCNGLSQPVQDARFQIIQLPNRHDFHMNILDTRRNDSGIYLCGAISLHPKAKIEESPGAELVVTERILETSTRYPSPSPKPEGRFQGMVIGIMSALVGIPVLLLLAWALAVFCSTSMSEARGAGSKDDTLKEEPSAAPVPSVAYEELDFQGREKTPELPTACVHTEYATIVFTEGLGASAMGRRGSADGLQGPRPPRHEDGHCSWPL
# Experimental: (§1) Binding experiments were performed on a Biacore T-200 (GE Healthcare Life Sciences, Buckinghamshire, UK) at 25°C. The assay buffer was 10 mM HEPES buffer (pH 7.4), 150 mM NaCl, 3 mM EDTA, and 0.05% P20. The regeneration buffer was 10 mM HEPES buffer (pH 7.4), 150 mM NaCl, 3 mM EDTA, and 0.05% P20. The immobilization buffer was 10 mM sodium acetate at pH 5.0. The flow rate used for immobilizing the ligand was 5 μL/min. The flow rate for kinetics analysis was 30 μL/min. In initial scouting experiments, 12,000 RU of human and 6000 RU of mouse PD1 receptors were directly immobilized on flow cell 2 and flow cell 4 of the CM5 chip using an amine coupling method (EDC/NHS). The unoccupied sites were blocked with 1M ethanol amine. […] Flow cell 1 was kept blank and used for reference subtraction. Binding of an analyte to the ligand was monitored in real-time. Based on the scouting results, full kinetics were performed by immobilizing 10,000 RU of the ligand to a new chip using an analyte concentration of 25 μM, followed by serial dilution to 12.5, 6.25, 3.125, 1.562, 0.78, and 0 μM concentration, or as indicated. Data analysis was performed using software for Biacore 3000, because it has more flexibility in terms of obtaining the binding characteristics with a limited analyte concentration range. […] Chi-square (χ^2) analysis was performed between the actual sensorgram and the sensorgram generated from the BIAnalysis software to determine the accuracy of the analysis. A χ^2 value within 1–2 was considered to be significant (accurate) and below 1 was considered to be highly significant (highly accurate).
# (§2) The four peptides identified by phage display were then tested for binding to human and mouse PD1 using the surface plasmon resonance technique.
# human PD1 = human PD1 (Homo sapiens, UniProt Q15116); assay: Biacore surface plasmon resonance, binding to human PD1; settings: for KA: 25°C, HEPES pH 7.4; for Rmax: maximum binding capacity
# Sequence of human PD1 (Q15116 25-288): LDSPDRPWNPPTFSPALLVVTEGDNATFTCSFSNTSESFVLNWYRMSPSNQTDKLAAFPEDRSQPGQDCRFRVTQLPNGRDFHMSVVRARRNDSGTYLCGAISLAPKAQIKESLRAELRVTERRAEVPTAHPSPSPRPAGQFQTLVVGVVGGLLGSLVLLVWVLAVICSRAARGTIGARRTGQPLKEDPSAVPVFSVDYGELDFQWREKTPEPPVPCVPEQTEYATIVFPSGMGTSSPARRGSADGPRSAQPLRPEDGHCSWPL
# Experimental: as §1, §2
# [1] = tested on: human PD1 on Jurkat T cells; assay: Competitive inhibition of PD-L1-Fc binding to Jurkat cells overexpressing human PD1; format: cell-based; settings: 10 μM peptide, 30 min on ice, PD-L1-Fc 4 μg/mL; flow cytometry MFI normalized to no peptide; duplicates
# human PBMC = format: cell-based
# P. yoelii sporozoites = assay: Sporozoite challenge and protection against malaria; format: in vivo, Plasmodium yoelii (17XNL) in BALB/c mice; settings: AdPyCS 10^9 virus particles IM; 200 μg IP days 1, 3, 5, 7 where treated; challenge day 12; n = 20/group
# From the text: Six- to eight-week-old female BALB/c mice were purchased from Taconic (Germantown, NY, USA). All mice were maintained under standard conditions in the Laboratory Animal Research Center of the Rockefeller University, and the protocol was approved by the Institutional Animal Care and Use Committee at the Rockefeller University (Assurance no. A3081-01). A recombinant serotype 5 adenovirus, AdPyCS that expressed Plasmodium yoelii circumsporozoite protein (PyCS) was constructed as previously described ([32]). Wild-type P. yoelii parasites of the 17 XNL strain were maintained in the insect facility of the Division of Parasitology, Department of Microbiology at New York University School of Medicine. […]
# Sporozoite challenge experiments were performed as described previously ([32]–[35]). […] Parasitemia was monitored from days 3 to 8 after the sporozoite challenge, by detecting the presence of parasitized red blood cells in thin blood smears to assess for a complete protection against malaria. […]
# To evaluate efficacy of the PD1 peptide antagonists as a prophylactic vaccine adjuvant, a rodent malaria model dependent on the generation of protective CD8 T cells was employed. […] On day 12, spleens were harvested and the number of splenic circumsporozoite protein (CS)-specific, IFN-γ-secreting CD8^+ T cells were assessed using an ELISpot assay. […]
# [2] = human PD1, peptide analyte 0–25 μM
# [3] = mouse PD1, peptide analyte 0–25 μM
# [4] = mouse PD1, peptide analyte 0–25 μM, maximum binding capacity
Substance,"Rmax (mouse PD1; mouse PD1, mouse PD-L1 analyte 0–50 (head μM))","Rmax (mouse PD1; mouse PD1, mouse PD-L1 analyte 0–1000 (head μM))",KA (human PD1; [2]),Rmax (human PD1; [2]),relative affinity for mouse PD1 (mouse PD1),KA (mouse PD1; [3]),Rmax (mouse PD1; [4]),reduction in PD-L1-Fc binding [1],"Rmax (human PD1; human PD1, peptide analyte 0–12.5 μM)","cytokine secretion (IFN-γ, IL-17, IL-6) (human PBMC)",protection against malaria (P. yoelii sporozoites)
Mouse PD-L1: mouse PD-L1 analyte [reference compound],259 RU,1.07 × 10^3 RU,,,,,,,,,
SSYHHFKMPELHFGKNTFHQ [SQ20],,,194000 M⁻¹,4.05 RU,bound to mouse PD1 with a higher affinity compared to WQ20 and HD20,21400 M⁻¹,12.8 RU,> 30%,,,
HHHQVYQVRSHWTGMHSGHD [HD20],,,,,,4250 M⁻¹,76 RU,< 30%,3.35 RU,,
QTRTVPMPKIHHPPWQNVVP [QP20],,,93600 M⁻¹,3.83 RU,bound to mouse PD1 with a higher affinity compared to WQ20 and HD20,18000 M⁻¹,13.4 RU,< 30%,,"With the exception of QP20, the other PD1-binding peptides significantly increased cytokine secretion at 200 μM relative to tetanus alone",
"negative control peptide: control peptide is the OVA323−339 peptide (malaria model) (KISQAVHAAHAEINEAG; UniProt P01012 323-339, looked up, fragment)",,,,,,,,,,,no protection
